Columns and labels:
Test in all cases: Cell panel screen (CellTiter-Glo)
Format in all cases: cell-based, human
ZR-75-30 = ZR-75-30 (Breast), 20 micromolar, 72 hrs
Method in brief: (§1)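 Steps: seed cells, culture overnight at 37°C; add compound diluted in medium from DMSO stock to 20 μM final; incubate 72 h; add detection reagent for 10 min; read luminescence; compute % inhibition versus vehicle controls.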

NCI-H524 = NCI-H524 (Lung), 20 micromolar, 72 hrs
Method in brief: as §1

HCC1599 = HCC1599 (Breast), 20 micromolar, 72 hrs
Method in brief: as §1

NCI-H2405 = NCI-H2405 (Lung), 20 micromolar, 72 hrs
Method in brief: as §1

T47D = T47D (Breast), 20 micromolar, 72 hrs
Method in brief: as §1

M059J = M059J (Brain), 20 micromolar, 72 hrs
Method in brief: as §1

BT-474 = BT-474 (Breast), 20 micromolar, 72 hrs
Method in brief: as §1

HT-1197 = HT-1197 (Urinary bladder), 20 micromolar, 72 hrs
Method in brief: as §1

CCF-STTG1 = CCF-STTG1 (Brain), 20 micromolar, 72 hrs
Method in brief: as §1

RL95 = RL95 (Uterus), 20 micromolar, 72 hrs
Method in brief: as §1

BT-549 = BT-549 (Breast), 20 micromolar, 72 hrs
Method in brief: as §1

C8166 = C8166 (Leukemia), 20 micromolar, 72 hrs
Method in brief: as §1

NCI-H1770 = NCI-H1770 (Lung), 20 micromolar, 72 hrs
Method in brief: as §1

Colo 205 = conditions: Colo 205, 20 micromolar, 72 hrs
Method in brief: as §1

NCI-H28 = NCI-H28 (Lung), 20 micromolar, 72 hrs
Method in brief: as §1

HCC1937 = HCC1937 (Breast), 20 micromolar, 72 hrs
Method in brief: as §1

A498 = A498 (listed under Lung), 20 micromolar, 72 hrs
Method in brief: as §1

NCI-H1623 = NCI-H1623 (Lung), 20 micromolar, 72 hrs
Method in brief: as §1

MSTO-211-H = MSTO-211-H (Lung), 20 micromolar, 72 hrs
Method in brief: as §1

HPAF-II = HPAF-II (Pancreas), 20 micromolar, 72 hrs
Method in brief: as §1

HGC-27 = HGC-27 (Stomach), 20 micromolar, 72 hrs
Method in brief: as §1

ChaGo-K-1 = ChaGo-K-1 (Lung), 20 micromolar, 72 hrs
Method in brief: as §1

Panc 03.27 = Panc 03.27 (Pancreas), 20 micromolar, 72 hrs
Method in brief: as §1

HCC1395 = HCC1395 (Breast), 20 micromolar, 72 hrs
Method in brief: as §1

T98G = T98G (Brain), 20 micromolar, 72 hrs
Method in brief: as §1

TCCSUP = TCCSUP (Urinary bladder), 20 micromolar, 72 hrs
Method in brief: as §1

A704 = A704 (Kidney), 20 micromolar, 72 hrs
Method in brief: as §1

NCI-H1694 = NCI-H1694 (Lung), 20 micromolar, 72 hrs
Method in brief: as §1

CW-2 = CW-2 (Colon), 20 micromolar, 72 hrs
Method in brief: as §1

Bel-7402 = Bel-7402 (Liver), 20 micromolar, 72 hrs
Method in brief: as §1

J82 = J82 (Urinary bladder), 20 micromolar, 72 hrs
Method in brief: as §1

C3A = C3A (Liver), 20 micromolar, 72 hrs
Method in brief: as §1

HCC1569 = HCC1569 (Breast), 20 micromolar, 72 hrs
Method in brief: as §1

NCI-H2347 = NCI-H2347 (Lung), 20 micromolar, 72 hrs
Method in brief: as §1

SW13 = SW13 (Adrenal gland), 20 micromolar, 72 hrs
Method in brief: as §1

HEC-1-A = HEC-1-A (Uterus), 20 micromolar, 72 hrs
Method in brief: as §1

O=c1c2ccc(O)c(O)c2oc2cccc(O)c12 [gl-23]
Percent Inhibition (ZR-75-30): 16%
Percent Inhibition (NCI-H524): -30%
Percent Inhibition (HCC1599): 18%
Percent Inhibition (NCI-H2405): -14%
Percent Inhibition (T47D): -4%
Percent Inhibition (M059J): -5%
Percent Inhibition (BT-474): -16%
Percent Inhibition (HT-1197): -11%
Percent Inhibition (CCF-STTG1): -1%
Percent Inhibition (RL95): -20%
Percent Inhibition (BT-549): -16%
Percent Inhibition (C8166): -1%
Percent Inhibition (NCI-H1770): -11%
Percent Inhibition (Colo 205): -5%
Percent Inhibition (NCI-H28): -10%
Percent Inhibition (HCC1937): -1%
Percent Inhibition (A498): 3%
Percent Inhibition (NCI-H1623): 0%
Percent Inhibition (MSTO-211-H): -25%
Percent Inhibition (HPAF-II): -5%
Percent Inhibition (HGC-27): -6%
Percent Inhibition (ChaGo-K-1): -22%
Percent Inhibition (Panc 03.27): -5%
Percent Inhibition (HCC1395): -11%
Percent Inhibition (T98G): -2%
Percent Inhibition (TCCSUP): -5%
Percent Inhibition (A704): -11%
Percent Inhibition (NCI-H1694): -9%
Percent Inhibition (CW-2): -3%
Percent Inhibition (Bel-7402): -16%
Percent Inhibition (J82): -2%
Percent Inhibition (C3A): -1%
Percent Inhibition (HCC1569): 0%
Percent Inhibition (NCI-H2347): -8%
Percent Inhibition (SW13): -10%
Percent Inhibition (HEC-1-A): -6%

O=C(c1ccc(O)c(O)c1)c1c(O)cc(O)cc1O [gl-25]
Percent Inhibition (ZR-75-30): -3%
Percent Inhibition (NCI-H524): -74%
Percent Inhibition (HCC1599): 11%
Percent Inhibition (NCI-H2405): -9%
Percent Inhibition (T47D): -8%
Percent Inhibition (M059J): -9%
Percent Inhibition (BT-474): -3%
Percent Inhibition (HT-1197): 5%
Percent Inhibition (CCF-STTG1): 9%
Percent Inhibition (RL95): -8%
Percent Inhibition (BT-549): -10%
Percent Inhibition (C8166): 3%
Percent Inhibition (NCI-H1770): -10%
Percent Inhibition (Colo 205): -1%
Percent Inhibition (NCI-H28): -9%
Percent Inhibition (HCC1937): 0%
Percent Inhibition (A498): -10%
Percent Inhibition (NCI-H1623): 0%
Percent Inhibition (MSTO-211-H): -30%
Percent Inhibition (HPAF-II): 1%
Percent Inhibition (HGC-27): -3%
Percent Inhibition (ChaGo-K-1): -26%
Percent Inhibition (Panc 03.27): -14%
Percent Inhibition (HCC1395): -8%
Percent Inhibition (T98G): -2%
Percent Inhibition (TCCSUP): -5%
Percent Inhibition (A704): -5%
Percent Inhibition (NCI-H1694): -12%
Percent Inhibition (CW-2): -2%
Percent Inhibition (Bel-7402): -5%
Percent Inhibition (J82): 1%
Percent Inhibition (C3A): -3%
Percent Inhibition (HCC1569): 1%
Percent Inhibition (NCI-H2347): -13%
Percent Inhibition (SW13): -10%
Percent Inhibition (HEC-1-A): 5%

O=C1c2c(O)cc(O)cc2OC(c2ccc(O)c(O)c2)C1O (stereo not drawn) [gl-34]
Percent Inhibition (ZR-75-30): 14%
Percent Inhibition (NCI-H524): -31%
Percent Inhibition (HCC1599): 42%
Percent Inhibition (NCI-H2405): -5%
Percent Inhibition (T47D): -6%
Percent Inhibition (M059J): 9%
Percent Inhibition (BT-474): -15%
Percent Inhibition (HT-1197): 10%
Percent Inhibition (CCF-STTG1): 4%
Percent Inhibition (RL95): 3%
Percent Inhibition (BT-549): -9%
Percent Inhibition (C8166): 7%
Percent Inhibition (NCI-H1770): 0%
Percent Inhibition (Colo 205): 1%
Percent Inhibition (NCI-H28): -11%
Percent Inhibition (HCC1937): 8%
Percent Inhibition (A498): 2%
Percent Inhibition (NCI-H1623): -7%
Percent Inhibition (MSTO-211-H): -9%
Percent Inhibition (HPAF-II): 6%
Percent Inhibition (HGC-27): -8%
Percent Inhibition (ChaGo-K-1): -3%
Percent Inhibition (Panc 03.27): 9%
Percent Inhibition (HCC1395): 16%
Percent Inhibition (T98G): 1%
Percent Inhibition (TCCSUP): 4%
Percent Inhibition (A704): -13%
Percent Inhibition (NCI-H1694): 10%
Percent Inhibition (CW-2): 7%
Percent Inhibition (Bel-7402): -9%
Percent Inhibition (J82): 3%
Percent Inhibition (C3A): -13%
Percent Inhibition (HCC1569): 3%
Percent Inhibition (NCI-H2347): 2%
Percent Inhibition (SW13): -13%
Percent Inhibition (HEC-1-A): -5%
